Laboratory results taken from PMC6774072, “Azologization and repurposing of a hetero-stilbene-based kinase inhibitor: towards the design of photoswitchable sirtuin inhibitors” (Beilstein Journal of Organic Chemistry, 2019).
Like-named read-outs stand apart in the source and are kept apart here.

Legend:
[1] = PSS thermal half-life of 11 by UV/Vis spectroscopy; format: physicochemical; settings: PSS after 365 nm irradiation; 50 µM in 5% DMSO (v/v) in enzyme assay buffer
Method: PSS thermal half-life of 11
The thermal half-life of 11 after 5 minutes of 365 nm irradiation was determined by UV/Vis-spectroscopy. Therefore, a 50 µM solution of 11 in 5% DMSO (v/v) in enzyme assay buffer was prepared and an initial spectrum of the thermal equilibrium recorded. After 5 minutes of irradiation with 365 nm the increase of absorbance at the thermal equilibrium maximum ( λ = 324 nm) was followed over a period of 96 hours (Figure S6). Absorbance at 324 nm was plotted as a function of time. A non-linear regression yielded the half-live of the PSS. Due to the slow rate of thermal isomerization only a short period could be measured. Therefore the limit value was set to 0.939 as this was the absorbance at 324 nm of 11 at the thermal […]
Figure S6: 11 (50 µM) in 5% DMSO (v/v) in enzyme assay buffer after 5 minutes of 365 nm irradiation. Absorbance at 324 nm of plotted as a function of time with non-linear fit (red line).
(1 picture or pasted object on this page, not shown here)
Table S2: Non-linear fit of measured values.

[2] = isomer composition of 11 at thermal equilibrium and photostationary states, HPLC with UV–vis detection at the isosbestic points; format: physicochemical
Description: The photoisomerization could be reversed by exposure to visible light, i.e. 452 nm, albeit the PSS at 452 nm still comprised about 25% of (Z)-11 as determined by HPLC analysis using UV–vis detection at the isosbestic points (Table 2). Light of 500 nm could also reverse photoisomerization, but was not as effective as 452 nm radiation. […] Switching between the two PSS could be repeated several times without any observable fatigue of the compound (Figure 5).
Photochemistry: All photoisomerization experiments were conducted under ruby light of 630 nm. Illumination was executed using a Bio-Link 254 Crosslinker from Vilber-Lourmat equipped with six Vilber-Lourmat T8-C lamps (8 W, 254 nm) or six Vilber-Lourmat T8-L lamps (8W, 365 nm), respectively. Visible light radiation of 630 nm (red), 500 nm (green) and 452 nm (blue) was derived from a Paulmann FlexLED 3D strip. All compounds were irradiated in solution, using spectrophotometric grade solvents. Photoisomerization and UV–vis spectra measurement was conducted in quartz cuvettes at room temperature. […]
of 11 (1 mM) were injected before and after 5 minutes of 365 nm or 1 minute of 452 nm irradiation. Isocratic elution with 60% MeOH and 40% water (+ 0.1% HCOOH) for 12 minutes at 1 mL∙min−1 was applied and gave complete separation of the isomers. Integration of the peak areas at the isosbestic points (λobs = 244 nm and 270 nm) gave the relative percentage of (E)-11 and (Z)-11, respectively (Figure S5).
Table S1. Isomer composition ((E)-11 / (Z)-11) at the thermal equilibrium (∆) and the PSS after 5 minutes of 365 nm and 1 minute of 452 nm radiation. […]

Sirt2 = molecular target: T1, Sirt2 (Homo sapiens, UniProt Q8IXJ6); test: fluorescence-based deacetylase assay with Z-Lys(acetyl)-AMC (ZMAL) substrate; format: biochemical; settings: read-out: Sirt2 inhibition IC50
T1 construct: Sirt2_56−356; made in house
T1 sequence (Q8IXJ6 56-356): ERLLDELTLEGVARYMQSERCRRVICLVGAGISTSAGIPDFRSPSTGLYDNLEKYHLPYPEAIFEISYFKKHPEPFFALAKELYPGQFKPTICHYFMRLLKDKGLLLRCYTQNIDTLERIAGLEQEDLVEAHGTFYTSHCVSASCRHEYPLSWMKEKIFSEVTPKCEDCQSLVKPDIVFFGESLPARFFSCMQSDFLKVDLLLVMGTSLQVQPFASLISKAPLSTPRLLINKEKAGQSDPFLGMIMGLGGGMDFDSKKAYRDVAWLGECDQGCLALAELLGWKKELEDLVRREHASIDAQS
Method: The influence on deacetylase activity of three human sirtuin isoforms (Sirt1–3) was determined in a fluorescence-based assay, using Z-Lys(acetyl)-AMC (ZMAL) as a substrate. Compared to the lead structure 2a, all compounds except 2e–h show increased inhibitory activity against Sirt2 (Table 1). […] Moreover, a slight increase in selectivity for Sirt2 and Sirt3 over Sirt1 could be observed for 2c, 4a and 4b. […] Though not photoswitchable, compounds 4a and 4b were synthesized to test the influence of a rigid conformation around the C=C double bond on sirtuin inhibition. […] A recently developed fluorescence polarization (FP)-based assay enables mapping of ligand binding to this specific binding site. For 2a an interaction with the selectivity pocket was already implied in the same work. Additionally performed docking studies proposed a binding mode in which 2a mimics the nicotinamide residue of NAD^+, whereas aromatic amino acid residues of the selectivity pocket stabilize the dimethylphenol ring. As photoisomerization in stilbenes and azo dyes is accompanied by a perpendicular twist of the phenyl ring towards the former molecular plane, we assumed that this conformational change should provoke a differential binding situation at least for the dimethylphenol residue in 2a. Unfortunately, binding of 2b and c could not be localised in the vicinity of the selectivity pocket of Sirt2, so that the binding pose remains unclear.
The photoswitchable diazeno compound 11 was subjected to biological evaluation to test the effect of photoisomerization on the inhibitory activity. The enzyme assay mixture containing 11 was exposed to 5 minutes of 365 nm radiation and compared with the results of a non-irradiated measurement. […] Unfortunately, 365 nm radiation turned out to have only minor effects on the IC50 values of 11 (Table 3).
Cloning, expression and purification of recombinant proteins: Expression and purification of Sirt1_133-747, Sirt2_56−356, and Sirt3_118−395 was carried out as described previously. Identity and purity were verified by SDS-PAGE [65]. Protein concentration was determined by the Bradford assay.
Bioassay: The inhibitory effect of compounds 2a–h, 4a/b, 8a and 11 on Sirt1–3 was detected via a previously reported fluorescence based assay. The synthetic substrate Z-Lys(acetyl)-AMC (ZMAL) is deacetylated by sirtuins, followed by tryptic digestion and thereby release of […], leading to a fluorescent readout. Inhibition was determined by comparing percentage substrate conversion to a DMSO control after subtraction of the blank fluorescence signal. All compounds were tested at 100 µM, 50 µM and 10 µM, respectively. […] IC50 values were calculated with OriginPro 9.0 G using a non-linear regression to fit the dose response curve. An enzyme-free blank control and a 100% conversion control using AMC instead of ZMAL were measured as well. Inhibition measurements were performed in biological duplicates for all compounds.

t½ of PSS (thermal) [1]: 12.5 days
percentage of (Z)-11 in PSS ([2]; 365 nm irradiation): 84%
percentage of (Z)-11 in PSS ([2]; 452 nm irradiation, HPLC, UV–vis detection at isosbestic points): about 25%
Isomer composition ((E)-11 / (Z)-11) ([2]; PSS (365 nm), 5 minutes, λobs 244 nm): 17 / 83
Isomer composition ((E)-11 / (Z)-11) ([2]; PSS (365 nm), 5 minutes, λobs 270 nm): 16 / 84
Isomer composition ((E)-11 / (Z)-11) ([2]; PSS (452 nm), 1 minute, λobs 244 nm): 76 / 24
Isomer composition ((E)-11 / (Z)-11) ([2]; PSS (452 nm), 1 minute, λobs 270 nm): 74 / 26
Isomer composition ((E)-11 / (Z)-11) ([2]; thermal equilibrium (∆), λobs 244 nm): 98 / 2
Isomer composition ((E)-11 / (Z)-11) ([2]; thermal equilibrium (∆), λobs 270 nm): 99 / 1
melting point: 212.3 °C
IC50 (Sirt2; photostationary state (PSS) after 5 minutes of 365 nm irradiation): 24.1 ± 1.69 µM
IC50 (Sirt2; thermal equilibrium (∆), non-irradiated): 18.9 ± 1.38 µM
SMILES: NC(=O)c1cncc(N=Nc2ccc(F)cc2)c1 [Compound 11, 5-[(4-Fluorophenyl)diazenyl]nicotinamide]
